{
  "source": "patent US5459152A",
  "about": "“Platelet activating factor antagonists” (Abbott Laboratories, priority 1993, dated 1995)",
  "data": [
    {"biological_target": "T1, PAF receptor (Oryctolagus cuniculus, UniProt G1TEI7)", "T1 construct": "platelet membranes where prepared by centrifugation and washing; tissue Pel-Freez (Rogers, AR) (whole rabbit blood); host or cells: rabbit platelet membranes", "T1 sequence (G1TEI7 1-342)": "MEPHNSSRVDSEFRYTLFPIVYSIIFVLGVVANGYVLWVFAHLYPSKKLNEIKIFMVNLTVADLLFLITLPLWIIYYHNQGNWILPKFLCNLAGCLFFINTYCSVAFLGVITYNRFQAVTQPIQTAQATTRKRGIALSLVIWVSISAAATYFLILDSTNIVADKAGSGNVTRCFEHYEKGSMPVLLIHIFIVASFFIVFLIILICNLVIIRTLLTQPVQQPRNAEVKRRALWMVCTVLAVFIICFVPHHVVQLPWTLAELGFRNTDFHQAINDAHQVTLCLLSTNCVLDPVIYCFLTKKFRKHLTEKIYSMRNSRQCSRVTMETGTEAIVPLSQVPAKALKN", "test": "PAF receptor binding assay ([3H]C18-PAF, rabbit platelet membranes)", "settings": "read-out: PAF Receptor Binding Activity K1", "method": "The ability of representative compounds of the present invention to inhibit PAF activity was determined in an in vitro test using the following method.\nCitrated whole rabbit blood was obtained from Pel-Freez (Rogers, AR). Rabbit platelets where prepared by centrifugation and washing. The platelets where lysed by freeze-thawing and sonication; platelet membranes where prepared by centrifugation and washing. Final membrane preparations where stored frozen in 10 mM Tris/5 mM MgCl2 /2 mM EDTA (TME buffer, pH 7.0) with 0.25 M sucrose added for membrane stabilization.\nThe final volume of the assay was 100 μl. The assay was conducted in Millititre-GV™ (Millipore Corp.) filtration plates; incubation time was for 60 minutes at room temperature (22°-23° C.). \"Specific binding\" was operationally defined as the arithmetic difference between \"total binding\" of 0.6 nM [^3 H]C18 -PAF (in the absence of added PAF) and \"nonspecific binding\" (in the presence of 1 μM PAF). After the prescribed incubation, platelet membranes where filtered under vacuum and washed with 1 millilitre of \"binding buffer\". The filters was dried and removed. The bound radioactivity was quantitated with a Berthold TLC-Linear Analyzer model LB2842.\nExperiments where repeated at least once.", "units": {"Ki": "µM"}, "values": [
      {"smiles": "CNC(=O)Cn1cc(C(=O)c2ccn3c2CSC3c2cccnc2)c2ccc(-c3ccc(F)cc3)cc21", "note": "(centres unmarked) [Example 81, 3-(Pyridin-3-yl)-7-[1-(2-N-methylcarbamoylmethyl)-6-(4-fluorophenyl)indol-3-ylcarbonyl]-1H,3H-pyrrolo[1,2-c]thiazole]", "Ki": 0.00112},
      {"smiles": "ON=C(c1ccn2c1CSC2c1cccnc1)c1c[nH]c2cc(-c3ccc(F)cc3)ccc12", "note": "(centres unmarked) [Example 83, 3-(Pyridin-3-yl)-7-[6-(4-fluorophenyl)indol-3-ylcarbonyloxime]-1H,3H-pyrrolo[1,2-c]thiazole]", "Ki": 0.0107},
      {"smiles": "CN(C)CCN(C)C(=O)n1cc(C(=O)c2ccn3c2CSC3c2cccnc2)c2ccc(-c3ccc(F)cc3)cc21", "note": "(centres unmarked) [Example 84, 3-(Pyridin-3-yl)-7-[1-(N-methyl-N-(dimethylaminoethyl))carbamoyl-6-(4-fluorophenyl)indol-3-ylcarbonyl]-1H,3H-pyrrolo[1,2-c]thiazole]", "Ki": 0.0069},
      {"smiles": "CN(C)C(=O)n1cc(C(=O)c2ccn3c2CSC3c2cccnc2)c2ccc(-c3cnc(N)nc3)cc21", "note": "(centres unmarked) [Example 89]", "Ki": 0.28},
      {"smiles": "NCCn1cc(C(=O)c2ccn3c2CSC3c2ccc[n+]([O-])c2)c2ccc(-c3ccc(F)cc3)cc21", "note": "(centres unmarked) [Example 90, 3-(1-Oxide-pyridin-3-yl)-7-[1-(2-aminoethyl)-6-(4-fluorophenyl)indol-3-ylcarbonyl]-1H,3H-pyrrolo[1,2-c]thiazole]", "Ki": 0.48},
      {"smiles": "CN(C)C(=O)n1cc(C(=O)c2ccn3c2CSC3c2cccnc2)c2ccc(-c3ccc(C(=O)NN)cc3)cc21", "note": "(centres unmarked) [Example 91, 3-(1-Oxide-pyridin-3-yl)-7-[1-N,N-dimethylcarbamoyl-6-(4-hydrazinylcarbonylphenyl)indol-3-ylcarbonyl]-1H,3H-pyrrolo[1,2-c]thiazole]", "Ki": 0.02},
      {"smiles": "CC(=O)OC[n+]1cccc(C2SCc3c(C(=O)c4cn(C(=O)N(C)C)c5cc(-c6ccc(F)cc6)ccc45)ccn32)c1", "note": "(centres unmarked) [Example 92, 3-(1-Acetoxymethylpyridin-3-yl)-7-[1-N,N-dimethylcarbamoyl-6-(4-fluorophenyl)indol-3-ylcarbonyl]-1H,3H-pyrrolo[1,2-c]thiazole]", "Ki": 0.019},
      {"smiles": "CN(CO)C(=O)Cn1cc(C(=O)c2ccn3c2CSC3c2cccnc2)c2ccc(-c3ccc(F)cc3)cc21", "note": "(centres unmarked) [Example 93]", "Ki": 0.0008},
      {"smiles": "N#CCn1cc(C(=O)c2ccn3c2CSC3c2cccnc2)c2ccc(-c3ccc(F)cc3)cc21", "note": "(centres unmarked) [Example 94, 3-(Pyridin-3-yl)-7-[1-cyanomethyl-6-(4-fluorophenyl)indol-3-ylcarbonyl]-1H,3H-pyrrolo[1,2-c]thiazole]", "Ki": 0.04},
      {"smiles": "NC(=O)Cn1cc(C(=O)c2ccn3c2CSC3c2cccnc2)c2ccc(-c3ccc(F)cc3)cc21", "note": "(centres unmarked) [Example 95, 3-(Pyridin-3-yl)-7-[1-carbamoylmethyl-6-(4-fluorophenyl)indol-3-ylcarbonyl]-1H,3H-pyrrolo[1,2-c]thiazole]", "Ki": 0.01},
      {"smiles": "O=C(c1ccn2c1CSC2c1cccnc1)c1cn(Cc2nnn[nH]2)c2cc(-c3ccc(F)cc3)ccc12", "note": "(centres unmarked) [Example 97, 3-(Pyridin-3-yl)-7-[1-(1H-tetrazol-5-ylmethyl)-6-(4-fluorophenyl)indol-3-ylcarbonyl]-1H,3H-pyrrolo[1,2-c]thiazole]", "Ki": 0.019},
      {"smiles": "CCNC(=O)n1cc(C(=O)c2ccn3c2CSC3c2cccnc2)c2ccc(-c3ccc(F)cc3)cc21", "note": "(centres unmarked) [Example 99]", "Ki": 0.019},
      {"smiles": "CN(C)C(=O)n1cc(C(=O)c2ccn3c2CSC3c2cccnc2)c2ccc(-c3cccs3)cc21", "note": "(centres unmarked) [Example 101, 3-(Pyridin-3-yl)-7-(1-N,N-dimethylcarbamoyl-6-thiophen-2-ylindol-3-ylcarbonyl)-1H,3H-pyrrolo[1,2-c]thiazole]", "Ki": 0.00095},
      {"smiles": "CN(C)C(=O)n1cc(C(=O)c2ccn3c2C[S+]([O-])C3c2ccc[n+]([O-])c2)c2ccc(-c3ccc(F)cc3)cc21", "note": "(centres unmarked) [Example 103, 2-Oxide-3-(1-oxide-pyridin-3-yl)-7-[1-N,N-dimethylcarbamoyl-6-(4-fluorophenyl)indole-3-ylcarbonyl]-1H,3H-pyrrolo[1,2-c]thiazole]", "Ki": 0.085},
      {"smiles": "CN(C)C(=O)n1cc(C(=NN)c2ccn3c2CSC3c2cccnc2)c2ccc(-c3ccc(F)cc3)cc21", "note": "(centres unmarked) [Example 104]", "Ki": 0.0022},
      {"smiles": "O=C(c1ccn2c1CSC2c1cccnc1)c1cn(C(=O)NCCc2c[nH]cn2)c2cc(-c3ccc(F)cc3)ccc12", "note": "(centres unmarked) [Example 105, 3-(Pyridin-3-yl)-7-[1-N-(2-(4-imidazolyl)ethyl)carbamoyl-6-(4-fluorophenyl)indol-3-ylcarbonyl]-1H,3H-pyrrolo[1,2-c]thiazole]", "Ki": 0.0043},
      {"smiles": "CN(C)C(=O)n1cc(C(=NNC(N)=O)c2ccn3c2CSC3c2cccnc2)c2ccc(-c3ccc(F)cc3)cc21", "note": "(centres unmarked) [Example 106, 3-(pyridin-3-yl)-7-[1-N,N-dimethylcarbamoyl-6-(4-fluorophenyl)indol-3-ylcarbonylsemicarbazide]-1H,3H-pyrrolo[1,2-c]thiazole]", "Ki": 0.008}
    ]}
  ]
}
